# Test results published in patent US9890357B2, “Method for inducing differentiation of human pluripotent stem cells into intermediate mesoderm cells” (Kyoto University, priority 2011, dated 2018).
# Assays:
# [1] = test system: OSR1-GFP reporter iPS cells; assay: Induction of differentiation into intermediate mesoderm cells (novel induction method 1), flow cytometry using OSR1 (GFP) expression; assay type: cell-based, human; conditions: novel induction method 1: 2 days 3 micromolar CHIR99021 + 10 micromolar Y-27632, then 8 days 1 micromolar retinoic acid derivative
# Method: (§1) Human iPS cells (201B7) provided by Dr. Yamanaka at Kyoto University were cultured by the known method (Takahashi, K. et al., Cell 131: 861-872). Subsequently, a GFP-PGK-Neo cassette was inserted into a site downstream of the OSR1 initiation codon of a BAC clone (RP11-458J18) (BACPAC RESOURCES) using pRed/ET (Gene Bridges GmbH), so as to prepare a OSR1-GFP BAC transgene. The resulting modified BAC clone was introduced into the human iPS cell and the OSR1-GFP reporter iPS cell line expressing GFP in conjunction with the expression of endogenous OSR1 was established.
# (§2) The above OSR1-GFP reporter iPS cells were cultured to confluence on a 10-cm dish using SNL cells as feeder cells (McMahon, A. P. and Bradley, A., 1990, Cell 62; 1073-1085). A CTK solution was added to the cells for dissociation, the feeder cells were removed, and the iPS cells were dispersed into single cells with the addition of Accutase.
# Subsequently, the iPS cells were suspended in a DMEM/F12 medium containing Glutamax, 2% FBS, and PenStrep, and 10 micromolar Y-27632 and 3 micromolar CHIR99021 were added thereto. Subsequently, the cell suspension was transferred to a dish coated with 0.1% gelatin, and culture was conducted for 2 days. […]
# After the cell culture had been conducted for 8 days, the cells were analyzed by flow cytometry (FACS) using OSR1 expression as an indicator.
# [2] = test system: iPS cell clones (201B6, 253G1, 263G4 and 585A1) and ES cell clone (KhES1, KhES3 and H9); assay: Level of OSR1 expression after differentiation from each iPS cell clone or ES clone (novel induction method 3); assay type: cell-based, human
# Excerpt: White bar indicates the result using AM580. Black bar indicates the result using TTNPB. Grey bar indicate the result of conventional method without AM580 and TTNPB.
# [3] = test system: OSR1-GFP reporter iPS cells; assay: Induction of differentiation into intermediate mesoderm cells (novel induction methods 2 and 3), flow cytometry using OSR1 (GFP) expression; time course; assay type: cell-based, human; conditions: for time at which growth of OSR1 positive cells had plateau after the medium change: cell numbers measured 3, 5, 8 or 12 days after change to medium with 1 micromolar retinoic acid derivative
# Method: as §1, §2
# Subsequently, the iPS cells were suspended in a DMEM/F12 medium containing Glutamax, 2% FBS, and PenStrep, and a combination of (1) 10 micromolar Y-27632 (ROCK inhibitor), 3 micromolar CHIR99021, and 1 micromolar AM580 or (2) 10 micromolar Y-27632 (ROCK inhibitor), 3 micromolar CHIR99021, and 1 micromolar TTNPB was added thereto. Subsequently, the cell suspension was transferred to a dish coated with 0.1% gelatin, and culture was conducted for 2 days.
# Thereafter, the medium was removed, the culture product was washed in PBS, and the iPS cells were then cultured for an additional 8 days (novel induction method 2) or 3 days (novel induction method 3) in a medium prepared by adding 1 micromolar AM580 or 1 micromolar TTNPB to a DMEM/F12 medium containing 2-mercaptoethanol, Glutamax, 10% KOCKOUT SR, 0.1 mM MEM NEAA, and PenStrep. During culture, the medium was exchanged with fresh medium once every 3 days in the case of the novel induction method 2.
# After the cell culture had been conducted for 8 or 3 days, the cells were analyzed by flow cytometry (FACS) using OSR1 expression as an indicator.
# Next, the length of time from medium change was studied. Briefly, number of OSR1 positive cells and total cells were measured at 3 days (novel induction method 3), 5 days, 8 days (novel induction method 2) or 12 days after the medium was changed to a medium prepared by adding 1 micromolar AM580 or 1 micromolar TTNPB to a DMEM/F12 medium containing 2-mercaptoethanol, Glutamax, 10% KOCKOUT SR, 0.1 mM MEM NEAA, and PenStrep (FIG. 4). The growth of OSR1 positive cells had plateau at 8 day after the medium change.
# [4] = test system: intranuclear receptor of retinoic acid (RAR); assay: Activity through retinoic acid pathway compared with ATRA; conditions: stated as effect of the invention, no test described
# [5] = Cytotoxicity compared with ATRA; assay type: cell-based; conditions: stated as effect of the invention, no test described
# [6] = test system: OSR1-GFP reporter iPS cells; assay: Organ culture of OSR1 (GFP) positive cells with mouse metanephric cells, immunostaining; assay type: cell-based, human; conditions: novel induction method 3 with 1 micromolar TTNPB, then mixed with E11.5 mouse metanephric cells, 7 days floating culture
# Method: The above OSR1-GFP reporter iPS cells were dissociated into single cells in a manner similar to Example 2. Subsequently, the iPS cells were suspended in a DMEM/F12 medium containing Glutamax, 2% FBS, and PenStrep, and a combination of 10 micromolar Y-27632, 3 micromolar CHIR99021, and 1 micromolar TTNPB was added thereto. Subsequently, the cell suspension was transferred to a dish coated with 0.1% gelatin, and culture was conducted for 2 days. Thereafter, the medium was removed, the culture product was washed in PBS, and the iPS cells were then cultured for an additional 3 days (novel induction method 3) in a medium prepared by adding 1 micromolar TTNPB to a DMEM/F12 medium containing 2-mercaptoethanol, Glutamax, 10% KOCKOUT SR, 0.1 mM MEM NEAA, and PenStrep. After isolating GFP positive cells from obtained cells with flow cytometer, 1×10^4 GFP positive cells were mixed with 1×10^5 mouse metanephric cells obtained from E11.5 mouse embryo on a low cell adhesion plate (PrimeSurface). The next day, cell sphere was transferred on the Isopore™ Membrane Filters (Merck Millipore) floated on Improve MEM medium containing 10 micromolar Y-27632, 10% FBS and PenStrep. During culture, the medium was exchanged with fresh medium once every 3 days. Obtained cells were analyzed with immunostaining at 7 days after floating culture (FIG. 9).
# [7] = test system: OSR1-GFP reporter iPS cells; assay: Suspention culture of OSR1 (GFP) positive cells to form sphere, immunostaining; assay type: cell-based, human; conditions: novel induction method 3 with 1 micromolar TTNPB, then suspention culture on low cell adhesion plate
# Method: (§3) The above OSR1-GFP reporter iPS cells were dispersed into single cells in a manner similar to Example 2. Subsequently, the iPS cells were suspended in a DMEM/F12 medium containing Glutamax, 2% FBS, and PenStrep, and a combination of 10 micromolar Y-27632, 3 micromolar CHIR99021, and 1 micromolar TTNPB was added thereto. Subsequently, the cell suspension was transferred to a dish coated with 0.1% gelatin, and culture was conducted for 2 days. Thereafter, the medium was removed, the culture product was washed in PBS, and the iPS cells were then cultured for an additional 3 days (novel induction method 3) in a medium prepared by adding 1 micromolar TTNPB to a DMEM/F12 medium containing 2-mercaptoethanol, Glutamax, 10% KOCKOUT SR, 0.1 mM MEM NEAA, and PenStrep. After isolating GFP positive cells from obtained cells with flow cytometer, 1×10^5 GFP positive cells were transferred to a low cell adhesion plate (PrimeSurface, Sumitomo Bakelite co.), and cultured in DMEM/F12 medium containing 10 micromolar Y-27632, 2-mercaptoethanol, Glutamax, 10% KOCKOUT SR, 0.1 mM MEM NEAA, and PenStrep in suspention to form cell sphere. During culture, the medium was exchanged with fresh medium once every 3 days.
# Obtained cells were analyzed with immunostaining (FIG. 8).
# [8] = test system: OSR1-GFP reporter iPS cells; assay: Long term culture of OSR1 (GFP) positive cells, RT-PCR and immunostaining; assay type: cell-based, human; conditions: novel induction method 3 with 1 micromolar TTNPB, then 8 days with 100 ng/ml BMP7, 100 ng/ml Wnt3a on Matrigel
# Method: as §3, with “cells were dissociated into single” for “cells were dispersed into single”, “flow cytometer, the GFP positive” for “flow cytometer, 1×10^5 GFP positive”, “to a dish coated with Matrigel (BD), and cultured” for “to a low cell adhesion plate (PrimeSurface, Sumitomo Bakelite co.), and cultured”, “micromolar Y-27632, 100 ng/ml BMP7, 100 ng/ml Wnt3a, 2-mercaptoethanol, Glutamax,” for “micromolar Y-27632, 2-mercaptoethanol, Glutamax,”, “and PenStrep for 8 days. During culture,” for “and PenStrep in suspention to form cell sphere. During culture,”, “3 days. Obtained cells were analyzed with RT-PCR (FIG. 7A) and immunostaining (FIG. 7B). […]” for “3 days.”
# [9] = novel induction method 2: 2 days 3 micromolar CHIR99021 + 10 micromolar Y-27632 + 1 micromolar retinoic acid derivative, then 8 days 1 micromolar retinoic acid derivative
# [10] = novel induction method 3: 2 days 3 micromolar CHIR99021 + 10 micromolar Y-27632 + 1 micromolar retinoic acid derivative, then 3 days 1 micromolar retinoic acid derivative
Structure (SMILES),induction of OSR1-positive cells (FACS) [1],differentiation of further iPS and ES cell clones into intermediate mesoderm cells [2],time at which growth of OSR1 positive cells had plateau after the medium change [3] [days],"induction of OSR1-positive cells (FACS) [3, 9]","induction of OSR1-positive cells (FACS) [3, 10]",activity relative to all-trans retinoic acid (ATRA) [4],cytotoxicity relative to ATRA [5],luminal structure formation from OSR1 positive cells by mixed culture with organ [6],luminal structure formation from OSR1 positive cells by forming sphere [7],further differentiation of obtained OSR1 positive cells [8]
"CC1(C)CCC(C)(C)c2cc(C(=O)Nc3ccc(C(=O)O)cc3)ccc21 [AM580, 4-[[(5,6,7,8-tetrahydro-5,5,8,8-tetramethyl-2-naphthalenyl)carbonyl]amino]-benzoic acid]",OSR1-positive cells were successfully induced,could be differentiated into intermediate mesoderm cells,8,OSR1-positive cells were successfully induced,OSR1-positive cells were successfully induced,higher than that of all-trans retinoic acid (ATRA),lower cytotoxicity compared with ATRA,–,–,–
"C/C(=C\c1ccc(C(=O)O)cc1)c1ccc2c(c1)C(C)(C)CCC2(C)C [TTNPB, 4-[(1E)-2-(5,6,7,8-tetrahydro-5,5,8,8-tetramethyl-2-naphthalenyl)-1-propen-1-yl]-benzoic acid]",OSR1-positive cells were successfully induced,could be differentiated into intermediate mesoderm cells,8,OSR1-positive cells were successfully induced,OSR1-positive cells were successfully induced,higher than that of all-trans retinoic acid (ATRA),lower cytotoxicity compared with ATRA,luminal structure could be constructed,luminal structure could be constructed,could be further differentiated into renal precursor cells
